Series [1] can be described thus: predicted human absorption, clearance and bioavailability. How it is done:
Based on in vitro data, the predicted human oral bioavailability is 70%. The observed oral bioavailability in several animal species is in the range 40% to 60%.
Therefore, a conservative estimate is that Cmax following an IV infusion over 20 minutes is less than 2-fold higher compared to an oral dose, after correcting for F.

Series [2] relates to bleomycin-mediated fibrosis in the lungs of rats. Particulars: cited from earlier work.
Series [3] in a line: excipient compatibility study. Type of series: physicochemical. An excerpt:
In some embodiments, the diluent is a sugar or sugar-containing, except mannitol. For example, the diluent may be lactose, dextrin, glucose, sucrose, sorbitol. In some embodiments, the diluent is microcrystalline cellulose.
In some embodiments, the lubricant/glidant is glyceryl behenate.

Series [4] deals with CYP3A4. The series can be described thus: Example 1: 4-β-hydroxy-cholesterol levels in blood (CYP3A4 activity). Type of series: in vivo, human. Particulars: healthy subjects. An excerpt:
Change from baseline in 4-β-hydroxy-cholesterol levels in blood.
Plasma 4-β-hydroxy-cholesterol levels at baseline and the last day of dosing were statistically analyzed using a linear mixed model analysis of covariance with treatment as a fixed effect and the baseline concentration of 4-β-hydroxy-cholesterol as covariate.

The nature of series [5]: Example 1, first clinical study: pharmacokinetics in healthy subjects. As to conditions: for half-life / Tmax: in vivo; for half-life: read-out: geometric mean terminal half-life. Type of series: in vivo, human. The procedure: This study is in two parts—part 1 involves testing a single ascending dose, whilst part 2 involves testing multiple ascending doses.
Part 1 comprises a Screening Period of a maximum of 6 weeks. This is followed by a Treatment Period during which subjects are resident at the Clinical Unit from 1 day before investigational medicinal product (IMP) administration (Day −1) until at least 72 hours after IMP administration (Day 4). Subjects receive a single oral dose of AZD5055 or placebo on Day 1. This is followed by a Follow-up Visit within 6±1 day after the IMP dose.
Part 2 comprises a Screening Period of a maximum of 6 weeks. This is followed by a treatment period during which subjects are resident at the Clinical Unit from 1 day before IMP administration (Day −1) until at least 72 hours after the last dose given on Day 16 (Day 19). Subjects are dosed for a total of 15 days and receive a single once daily morning dose of AZD5055 or placebo on Day 1 and on Days 3 through Day 16, with no dosing on Day 2. This is followed up a Follow-up Visit within 6±1 day after the IMP dose, and an additional Follow-up Visit within 29±2 days after the last IMP dose.
For cohorts with QD dosing regimens, the Screening Period is followed by a Treatment Period during which subjects are resident at the Clinical Unit from 1 day before IMP administration (Day −1) until at least 72 hours after the last dose given on Day 16 (Day 19). Subjects are dosed for a total of 15 days, receiving a single QD morning dose of AZD5055 or placebo on Day 1 and on Days 3 through Day 16.
For cohorts with BID dosing regimens, the Screening Period is followed by a Treatment Period during which subjects are resident at the Clinical Unit from 1 day before IMP administration (Day −1) until at least 72 hours after the last dose given on Day 16 (Day 19).
Subjects are dosed for a total of 15 days, receiving a single morning dose of AZD5055 or placebo on Day 1 and Day 16, and repeated BID dosing on Day 3 through Day 15, 12 hours (±30 minutes) apart.
The study was conducted in healthy male and healthy female subjects of non-childbearing potential with suitable veins for cannulation or repeated venipuncture. […] Also, the subjects were aged 18 to 55 years inclusive for men and women in Part 1 and only men in Part 2. For female subjects in Part 2, the age range was 18 to 49 years inclusive.
In Part 1 of the study, 3 dose levels of AZD5055 were investigated in 3 cohorts. Each cohort included 8 subjects. Within each cohort, 6 subjects were randomized to receive AZD5055, and 2 subjects were randomized to receive placebo. In Part 2 of the study, 3 dose levels of AZD5055 were investigated in 3 cohorts. In each cohort, 9 subjects were randomized to receive AZD5055, and 3 subjects were randomized to receive placebo.
Primary PK parameters: Cmax, AUCinf, and AUClast; secondary PK parameters: including but not limited to tmax, AUC (0-12) or AUC (0-24) (the one not being the primary parameter), t1/2λz, MRTinf, CL/F, Vz/F, Rac, TCP, Ae(t1-t2), fe (t1-t2), and CLR.
No formal statistical hypothesis testing was performed. The analyses of safety, tolerability, PK, and PD data was summarized descriptively by treatment/dose/study day separately using appropriate descriptive statistics including tables, listings, and graphs, as appropriate. Preliminary dose proportionality of AZD5055 after single dose (Day 1) in Part 1 and 2 and multiple dose (Day 16) in Part 2 was assessed graphically and was analyzed using the power model approach with the logarithm of PK parameters (AUC and Cmax on Day 1) and (AUC(0-τ) and Cmax on Day 16) as the dependent variable and the logarithm of the dose as the independent variable. For data collected in Part 2, the time dependency of the PK was evaluated by comparing AUC(0-τ) (Day 16) with AUC (Day 1) and accumulation was evaluated by comparing AUC(0-τ) (Day 16) with AUC(0-τ) (Day 1) and Cmax (Day 16) with Cmax (Day 1). […]

For series [6] the following is noted: cited from earlier work.

Read-outs that look alike come from different tables or passages of the source.

This is an account of results in patent US20260345593A1, “ORAL FORMULATION OF N-PYRIDINYL ACETAMIDE DERIVATIVE FOR TREATING INTERSTITIAL LUNG DISEASE” (AstraZeneca AB, priority 2022, published 2026).

In the case of `Cc1cc(-c2nccc3c2ccn3CC(=O)Nc2ccc(-c3cnccn3)cn2)ccn1` [AZD5055, 2-[4-(2-methyl-4-pyridyl)pyrrolo[3,2-c]pyridin-1-yl]-N-(5-pyrazin-2-yl-2-pyridyl)acetamide], the “Cmax after 20-minute IV infusion relative to oral dose” value in series [1] (conservative estimate, after correcting for F) is on record as “less than 2 fold”. For the same compound, the “dose absorbed within 20 minutes” value in series [1] (estimated from tmax of 1 hour, oral) was “approximately 75%”. In addition, the pulmonary fibrosis result in series [2] (rat bleomycin in vivo study (Bunyard 2019)) was “reduced pulmonary fibrosis”. The “bleomycin-mediated fibrosis in the lungs” value in series [2] (rats, preliminary studies (Bunyard 2019)) is “reduces bleomycin-mediated fibrosis in the lungs of rats”. Moreover, the “degradation products with silicon dioxide and magnesium stearate” value in series [3] (glidant and lubricant respectively) is recorded as “additional amounts of degradation products were identified”. Moreover, the compatibility with mannitol result in series [3] (mannitol as diluent) is listed as “not compatible”. In addition, the “degradation products with mannitol” value in series [3] (mannitol as diluent) is “additional amounts of degradation products were identified”. In addition, the “compatibility with silicon dioxide and magnesium stearate” value in series [3] (silicon dioxide as glidant, magnesium stearate as lubricant) is recorded as “not compatible”. For the same compound, the “effect on 4-β-hydroxy-cholesterol” value in series [4] (14 days of once daily dosing) was “no effect on 4-β-hydroxy-cholesterol”. Further, the “effect on CYP3A4 activity” value in series [4] (inferred from 4-β-hydroxy-cholesterol) is “no significant effect on CYP3A4 activity”. The “dose proportionality of exposure” value in series [5] (5 to 40 mg, single and multiple dose) was “increased approximately proportionally”. Moreover, the half-life – broadly, the time needed for the level to fall by half in the phase considered – was in the range of 12.2 to 17.2 h in series [5] (human, po, multiple daily administration) and 9.7 to 11.4 h in series [5] (human, po, single administration). The Tmax – broadly, the time from dosing to the highest level – was 1 to 1.3 h in series [5] (human, po, multiple daily doses of 5 to 20 mg, read-out: tmax (medians)) and 1 h in series [5] (human, po, observed, oral dose, read-out: tmax (time to Cmax)). In addition, the dose excreted in series [5] (human, urine, po, percent of dose administered, read-out: dose recovered unchanged in urine) is below 2.3%. Besides, the “between-subject variability in Cmax” value in series [5] (low) was below 25%. The decline of concentrations entry in series [5] (oral) is “declined in a bi-phasic manner”. In addition, the “renal clearance share of total clearance” value in series [5] (oral) is recorded as “small share of AZD5055 total clearance”. For the same compound, the absorption result in series [5] (oral suspension, single ascending doses of 7 to 40 mg) was “rapidly absorbed”. Also, in series [5] (repeat daily administration), the accumulation result is “Little to moderate accumulation”. Besides, the solubility result in series [6] is given as “pH dependent”.
